Converted amounts (≈) assume the structure as drawn. “And” between values parts separate entries of the source, which are not always exact repeats. Equal values may be shown once. Residues, ends and D or L forms follow the SMILES beside them.
Assays:
[1] = tested on: immortalized human HaCaT keratinocytes; assay: XTT cell proliferation assay, keratinocytes; assay type: cell-based; details: for effect on proliferation, in words: XTT, 48 and 72 h, 0.01–150 μg/mL
In short: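 Cells at 37 °C, 5% CO2 received peptidomimetics in serum-free HG-DMEM for 48 or 72 h; for 72 h, half the medium was renewed and peptide re-added at 48 h. XTT reagent was then incubated 4 h and absorbance read at 490 nm; Mann–Whitney U test, p ≤ 0.05.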

[2] = tested on: S. schleiferi c.i.; assay: MIC/MBC broth microdilution, S. schleiferi; assay type: cell-based, Staphylococcus schleiferi
In short: (§1)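 Standard NCCLS broth microdilution in BHI broth, inoculum approx. 10^5 CFU/mL, serially diluted peptidomimetics, 18 h at 37 °C. MIC was the lowest concentration with no obvious growth (≥90% inhibition versus untreated); MBC was the lowest giving ≤3 colonies on subculture (≥99.9% kill).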

[3] = tested on: K. pneumoniae ATCC 700603; assay: MIC/MBC broth microdilution, K. pneumoniae; assay type: cell-based
In short: as §1

[4] = tested on: fibroblasts (46BR.1N); assay: LDH cytotoxicity test, fibroblasts; assay type: cell-based; details: for cytotoxicity (LDH), in words: 50-150 μg/mL
In short: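 HaCaT keratinocytes and 46BR.1N fibroblasts, 5000 cells per well, grown 24 h, then exposed to peptidomimetics at 50, 100 and 150 μg/mL in serum-free medium for 48 h. LDH release in supernatant read at 450 nm, normalized to untreated (0%) and 1% Triton X-100 (maximal) controls.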

[5] = tested on: S. cohnii c.i.; assay: MIC/MBC broth microdilution, S. cohnii; assay type: cell-based, Staphylococcus cohnii
In short: as §1

[6] = tested on: E. faecalis c.i.; assay: MIC/MBC broth microdilution, E. faecalis; assay type: cell-based, Enterococcus faecalis
In short: as §1

[7] = tested on: S. mutans c.i.; assay: MIC/MBC broth microdilution, S. mutans; assay type: cell-based, Streptococcus mutans
In short: as §1

[8] = tested on: P. aeruginosa ATCC 10145; assay: MIC/MBC broth microdilution, P. aeruginosa; assay type: cell-based
In short: as §1

[9] = tested on: S. agalactiae ATCC 27956; assay: MIC/MBC broth microdilution, S. agalactiae; assay type: cell-based, Streptococcus agalactiae; details: S. agalactiae
In short: as §1

[10] = Hydrophobicity by reverse-phase chromatography; assay type: physicochemical; details: acetonitrile content in the mobile phase at the retention time
Excerpt: Reverse-phase chromatography was employed to assess the hydrophobicity characteristics of the peptidomimetics. Hydrophobicity was quantified by determining the acetonitrile content in the mobile phase at the retention time of a peptidyl derivative (Table S2). The least hydrophobic compound (40% acetonitrile) was A-198, which aligns with the calculations of hydrophobicity by SwissADME and pkCSM (Table ). Next in the hydrophobicity sequence were A-197, A-220, A-219, A-174, and A-221, eluting with 42.5-43.9% of acetonitrile. Then there were followed by […], and A-179, with the acetonitrile percentage of 44.8-49.8. The compounds A-176, A-20, A-152, A-134, and A-210 needed over 50% of acetonitrile to be eluted from the column.

| SMILES | effect on proliferation, in words [1] | MIC ([2]; H2O) | MIC ([2]; water additive DMSO) | MIC ([2]; water additive EtOH) | MIC ([3]; H2O) | MIC ([3]; water additive DMSO) | MIC ([3]; water additive EtOH) | cytotoxicity (LDH), in words ([4]; 48 h) | MIC ([6]; H2O) | MIC ([6]; water additive DMSO) | MIC ([6]; water additive EtOH) | MIC ([7]; H2O) | MIC ([7]; water additive DMSO) | MIC ([7]; water additive EtOH) | MBC ([8]; H2O) | MIC ([8]; water additive DMSO) | MIC ([9]; H2O) | MIC ([9]; water additive DMSO) | MIC ([9]; water additive EtOH) | % AcCN (acetonitrile required for elution from the column) [10] | also measured |
| --- | --- | --- | --- | --- | --- | --- | --- | --- | --- | --- | --- | --- | --- | --- | --- | --- | --- | --- | --- | --- | --- |
| CC(C)[C@H](NC(=O)[C@H](Cc1c[nH]cn1)NC(=O)[C@H](CCCNC(=N)N)NC(=O)OCc1ccccc1)C(=O)NCCc1ccccc1 [Compound A-219] (HELM PEPTIDE1{[O=C(OCc1ccccc1)[*:2]].R.H.V.[c1ccc(CCN[*:1])cc1]}$$$$V2.0) | best pro-proliferative effect | > 512 mg/L | > 512 mg/L | > 512 mg/L | > 512 mg/L | > 512 mg/L | > 512 mg/L | slight cytotoxicity | > 512 mg/L | > 512 mg/L | > 512 mg/L | > 512 mg/L | > 512 mg/L | > 512 mg/L | > 512 mg/L | 256 mg/L (≈ 395 µM) | > 512 mg/L | > 512 mg/L | > 512 mg/L | 42.6% | pro-proliferative effect above control ([1]; A-196 0.01–10 μg/mL, A-219 above 0.1 μg/mL, A-213 lower concentrations): around 20%; MIC ([5]; H2O): > 512 mg/L; MIC ([5]; water additive DMSO): > 512 mg/L; MIC ([5]; water additive EtOH): > 512 mg/L; MIC ([8]; H2O): 512 mg/L (≈ 790 µM); MBC ([8]; water additive DMSO): 512 mg/L (≈ 790 µM); MBC ([8]; water additive EtOH): > 512 mg/L; MIC ([8]; water additive EtOH): 512 mg/L (≈ 790 µM) |
| CC(C)[C@H](NC(=O)[C@H](Cc1c[nH]cn1)NC(=O)[C@H](CCCCN)NC(=O)OCc1ccccc1)C(=O)NCCc1ccccc1 [Compound A-220] (HELM PEPTIDE1{[O=C(OCc1ccccc1)[*:2]].K.H.V.[c1ccc(CCN[*:1])cc1]}$$$$V2.0) | did not exert any negative impact | > 512 mg/L | > 512 mg/L | > 512 mg/L | > 512 mg/L | > 512 mg/L | > 512 mg/L |  | > 512 mg/L | > 512 mg/L | > 512 mg/L | 256 mg/L (≈ 413 µM) | > 512 mg/L | > 512 mg/L | > 512 mg/L | 512 mg/L (≈ 826 µM) | 512 mg/L (≈ 826 µM) | 512 mg/L (≈ 826 µM) | 512 mg/L (≈ 826 µM) | 42.4% | cytotoxicity (LDH) ([4]; 48 h, 50, 100 and 150 μg/mL, vs 1% Triton X-100): 10–15% and 10%; concentration at which cytotoxic effect starts ([4]; LDH, 48 h): > 150 µg/mL; MBC ([5]; H2O): 512 mg/L (≈ 826 µM); MIC ([5]; H2O): 256 mg/L (≈ 413 µM); MBC ([5]; water additive DMSO): 512 mg/L (≈ 826 µM); MIC ([5]; water additive DMSO): 256 mg/L (≈ 413 µM); MBC ([5]; water additive EtOH): 512 mg/L (≈ 826 µM); MIC ([5]; water additive EtOH): 256 mg/L (≈ 413 µM); MBC ([7]; H2O): 512 mg/L (≈ 826 µM); MIC ([8]; H2O): 512 mg/L (≈ 826 µM); MBC ([8]; water additive DMSO): > 512 mg/L; MBC ([8]; water additive EtOH): > 512 mg/L; MIC ([8]; water additive EtOH): 512 mg/L (≈ 826 µM); MBC ([9]; H2O): 512 mg/L (≈ 826 µM); MBC ([9]; water additive DMSO): 512 mg/L (≈ 826 µM); MBC ([9]; water additive EtOH): 512 mg/L (≈ 826 µM) |
| CC(C)[C@H](NC(=O)[C@H](CCCNC(=N)N)NC(=O)[C@H](CCCNC(=N)N)NC(=O)OCc1ccccc1)C(=O)NCCc1ccccc1 [Compound A-221] (HELM PEPTIDE1{[O=C(OCc1ccccc1)[*:2]].R.R.V.[c1ccc(CCN[*:1])cc1]}$$$$V2.0) | pro-proliferating effect at lower concentrations followed by an antiproliferative effect at higher concentrations | > 512 mg/L | > 512 mg/L | > 512 mg/L | > 512 mg/L | > 512 mg/L | > 512 mg/L | slight cytotoxicity | > 512 mg/L | > 512 mg/L | > 512 mg/L | > 512 mg/L | > 512 mg/L | > 512 mg/L | 256 mg/L (≈ 384 µM) | 32 mg/L (≈ 48 µM) | 256 mg/L (≈ 384 µM) | 256 mg/L (≈ 384 µM) | 256 mg/L (≈ 384 µM) | 43.9% | MBC ([5]; H2O): 256 mg/L (≈ 384 µM); MBC ([5]; water additive DMSO): 256 mg/L (≈ 384 µM); MBC ([5]; water additive EtOH): 256 mg/L (≈ 384 µM); MBC ([9]; H2O): 512 mg/L (≈ 768 µM); MBC ([9]; water additive DMSO): 512 mg/L (≈ 768 µM); MBC ([9]; water additive EtOH): 512 mg/L (≈ 768 µM) |

From PMC12332667, “Role of Structural Modifications in Peptidomimetic Compounds as Potential Antimicrobial Agents against Staphylococcus aureus and Streptococcus pyogenes: Balancing Bioavailability, Safety, and Antimicrobial Activity” (ACS Omega, 2025)
